Measured values: PubChem BioAssay (NCI)
Values joined by “and” are separate entries in the source; they are usually repeats but may differ in a detail not shown here. Identical values can stand only once.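 These data come from cells grown in 96-well plates and exposed to compound for 48 hours at five concentrations. Abbreviation: GI50, concentration required for 50% inhibition of growth. TGI denotes the concentration required for complete inhibition of growth.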

Experiments:
Assay in all cases: NCI anticancer screen, dose series, 48 h
PC-3 prostate = system: PC-3 prostate
MCF7 breast = system: MCF7 breast
UACC-62 melanoma = system: UACC-62 melanoma
NCI-H23 lung = system: NCI-H23 lung
NCI/ADR-RES ovarian = system: NCI/ADR-RES ovarian
T-47D breast = system: T-47D breast
HL-60(TB) leukemia = system: HL-60(TB) leukemia
KM12 colon = system: KM12 colon
A498 renal = system: A498 renal
MDA-MB-231 breast = system: MDA-MB-231 breast

Row | SMILES | GI50 (PC-3 prostate) [µM] | TGI (PC-3 prostate) | GI50 (MCF7 breast) [µM] | TGI (MCF7 breast) | GI50 (UACC-62 melanoma) [µM] | TGI (UACC-62 melanoma) | GI50 (NCI-H23 lung) | TGI (NCI-H23 lung) [µM] | GI50 (NCI/ADR-RES ovarian) [µM] | TGI (NCI/ADR-RES ovarian) [µM] | GI50 (T-47D breast) | TGI (T-47D breast) [µM] | GI50 (HL-60(TB) leukemia) [µM] | TGI (HL-60(TB) leukemia) [µM] | GI50 (KM12 colon) | TGI (KM12 colon) | GI50 (A498 renal) [µM] | TGI (A498 renal) [µM] | GI50 (MDA-MB-231 breast) | TGI (MDA-MB-231 breast) [µM]
1 | CC1(C)[C@H](O)[C@H](F)C[C@@]2(C)Oc3ccc(C(=O)Nc4ccc5c(c4)NC(=O)C54CCN(CCCCC#N)CC4)cc3C[C@H]12 | 0.0225 | 2.84 µM and 5.24 µM | 0.00995 | 9.63 µM and 8.28 µM | 0.0308 | 1.13 µM and 1.12 µM | 2.44 µM and 2.29 µM | 17.8 | 42.9 | > 100 | 3.76 µM and 2.49 µM | 26.1 | 0.0583 | 6.04 | 0.463 µM and 0.707 µM | 9.79 µM and 11.9 µM | 0.0341 | 0.548 | 0.842 µM and 0.537 µM | 8.56
2 | N#C/C(=C\c1cc2ccc(N3CCC3)cc2oc1=O)C(=O)N(CC(=O)O)CC(=O)O | > 100 | > 100 µM | > 100 | > 100 µM | > 100 | > 100 µM | > 100 µM | > 100 | > 100 | > 100 | > 100 µM | > 100 | > 100 | > 100 | > 100 µM | > 100 µM | > 100 | > 100 | > 100 µM | > 100
3 | O=C1/C(=C/c2ccccc2O)N=C(c2ccccc2)N1c1cc(C(F)(F)F)ccc1Cl | 42.7 | > 100 µM | 3.04 | > 100 µM | 69.3 | > 100 µM | 80.1 µM | > 100 | 46.6 | > 100 | 6.68 µM | > 100 | > 100 | > 100 | 8.29 µM | > 100 µM | 59.4 | > 100 | 20.7 µM | 71.2
4 | COC1=C(OC)C(=O)C(CCCCCCCCCCO)=C(C)C1=O | 3.76 | 15.6 µM | 1.96 | 4.45 µM | 7.57 | 21.4 µM | 3.17 µM | 16.6 | 3.34 | 13 | 2.44 µM | 7.43 | 3.71 | 11.5 | 15.1 µM | 58.1 µM | 13.1 | 26.6 | 5.24 µM | 22
5 | Nc1nc2ccccc2c2c1S(=O)(=O)c1ccc(Cl)cc1C2=O | 0.89 | > 50 µM | 1.49 | > 50 µM | 1.68 | 24.8 µM | 2.48 µM | > 50 | 1.46 | 6.27 | 1.24 µM | > 50 | 1.39 | 3.7 | 1.86 µM | 13.3 µM | 2.37 | 22.5 | 1.57 µM | > 50
6 | CC(=O)N(O)c1ccc(/C=C/c2ccccc2)cc1 | 2.32 | > 100 µM | 0.548 | > 100 µM | 1.46 | 4.69 µM | 3.6 µM | 36.3 | 2.21 | 44.1 | 0.24 µM | > 41.8 | 1.07 | > 100 | 2.99 µM | 28.3 µM | 0.221 | 0.715 | 3.41 µM | 21.8
7 | O=[N+]([O-])c1cc(Cc2cc([N+](=O)[O-])c3cccnc3c2O)c(O)c2ncccc12 | – | 23.4 µM | – | 29.6 µM | – | 27.6 µM | – | > 100 | – | 54.1 | – | 18 | – | 5.35 | – | 25.8 µM | – | 31.8 | – | 25.9
8 | c1ccc(C2CCCCC2)c(OCCCCCN2CCNCC2)c1 | 3.19 | 18.4 µM | 1.89 | 4.36 µM | 1.87 | 3.62 µM | 5.72 µM | 22.2 | 7.07 | 29.2 | 1.92 µM | 5.16 | 1.72 | 3.94 | 1.85 µM | 4 µM | 4.54 | 20.7 | 1.62 µM | 3.75
9 | COC1=C(OC)[C@]2(OC)c3c(O)c(OC)c4c(c3O[C@@]23O[C@@H](c2ccccc2)CC=C3C1=O)[C@@H](OC)C[C@H](c1ccccc1)O4 | 0.706 | 1.84 µM | 0.265 | 1.36 µM | 1.82 | 3.83 µM | 0.277 µM | 1.01 | 0.607 | 3.74 | 0.564 µM | 1.71 | 0.53 | 1.4 | 1.57 µM | 3.12 µM | 1.51 | 2.94 | 0.445 µM | 1.7
10 | COc1ccc(COc2cc3oc(=O)c4cc(C(C)O)ccc4c3cc2OC)cc1 (centres undefined) | 14.7 | > 100 µM | 9.49 | > 100 µM | 8.47 | 34 µM | 16.6 µM | > 86.6 | 8.4 | 44.4 | 12.7 µM | > 100 | – | > 100 | 26.2 µM | > 100 µM | 19.2 | 82.2 | 9.6 µM | 97.5
11 | NC(=O)CC(N)c1nn[nH]n1 (centres undefined) | – | > 100 µM | – | > 100 µM | – | > 100 µM | – | > 100 | – | > 100 | – | > 100 | – | > 100 | – | > 100 µM | – | > 100 | – | > 100
12 | N#Cc1cccc(Nc2ncc(-c3ccccc3)o2)c1 | 15.1 | > 25 µM | 8.25 | > 25 µM | 13.1 | > 25 µM | > 22.8 µM | > 25 | 19.2 | > 25 | 11.7 µM | > 25 | 11 | > 25 | 8.18 µM | > 25 µM | > 22.2 | > 25 | 8.38 µM | > 25
13 | CC1=NNC(=S)NCCCN2CCN(CCCNC(=S)NN=C(C)C=NNC(=S)NCCCN3CCN(CCCNC(=S)NN=C1)CC3)CC2 | – | > 100 µM | – | > 100 µM | – | > 100 µM | – | > 100 | – | > 100 | – | > 100 | – | > 100 | – | > 100 µM | – | > 100 | – | > 100
14 | C[C@@H](NC(=O)c1ccc(F)cc1)c1ccc2c(c1)CCN2C(=O)C1CCOCC1 | > 100 | > 100 µM | > 100 | > 100 µM | 93.5 | > 100 µM | > 100 µM | > 100 | > 100 | > 100 | > 100 µM | > 100 | > 100 | > 100 | > 100 µM | > 100 µM | 17.1 | 88.5 | > 100 µM | > 100
15 | COc1ccc(C2CC(c3ccc(N(C)C)cc3)=NN2c2ccc(S(N)(=O)=O)cc2)cc1 (centres undefined) | 3.65 | > 100 µM | 3 | 21.7 µM | 5.85 | > 100 µM | 3.13 µM | > 100 | 4.73 | > 100 | 4.51 µM | > 100 | 3.99 | 86.3 | 3.68 µM | > 100 µM | 2.15 | 8.53 | 4.73 µM | 60.3
16 | N#Cc1c(NC(=O)c2ccccc2F)sc2c1CCCC2 | > 25 | > 25 µM | > 19.5 | > 25 µM | 18.1 | > 25 µM | > 25 µM | > 25 | 11.5 | > 25 | > 25 µM | > 25 | > 25 | > 25 | 5.12 µM | > 25 µM | > 16.7 | > 25 | > 23.5 µM | > 25
17 | COc1ccc(S(=O)(=O)N2CCNCC2)cc1OC | > 100 | > 100 µM | > 100 | > 100 µM | > 100 | > 100 µM | > 100 µM | > 100 | > 100 | > 100 | > 100 µM | > 100 | > 100 | > 100 | > 100 µM | > 100 µM | > 100 | > 100 | > 100 µM | > 100
18 | COc1cc(C(=O)/C=C/c2c(C(F)(F)F)nc3ccccn23)cc(OC)c1OC | 3.8 | 32.8 µM | 1.44 | 6.41 µM | 1.66 | 3.32 µM | 1.51 µM | 4.01 | 1.41 | 21.8 | 3.52 µM | 15 | 4.12 | > 100 | 1.73 µM | 3.64 µM | 2.4 | 5.77 | 4.59 µM | 19.3
19 | COc1cc(-c2ncn(/C=C\c3nnco3)n2)cc(C(F)(F)F)c1 | 0.189 | > 100 µM | 0.179 | > 33.4 µM | 0.354 | 13.8 µM | 0.132 µM | > 64.8 | 0.2 | > 100 | 0.571 µM | > 59.9 | 0.0809 | 13.1 | 0.705 µM | > 39.3 µM | 0.0421 | 0.619 | 0.208 µM | > 71.2
20 | CC(C)N(Cc1ccc(F)cc1)c1ccc(CO)c(Cl)c1 | 11.4 | 24.2 µM | 0.181 | 13.2 µM | 0.0664 | 0.4 µM | 3.31 µM | 21.8 | 10.4 | 23.8 | 0.0645 µM | 0.515 | 3.15 | 21.8 | 10.9 µM | 23.4 µM | 0.0225 | 0.134 | 12.4 µM | 25.6
21 | O=C(c1ccco1)c1c(C(F)(F)F)n([O-])c2cc(F)c(F)cc2[n+]1=O | 0.147 | 0.435 µM | 0.108 | 2.62 µM | 0.242 | 0.76 µM | 0.497 µM | 1.86 | 0.0648 | 0.179 | 0.782 µM | 22.7 | 0.4 | 2.74 | 0.7 µM | 2 µM | 4.88 | 17.3 | 0.14 µM | 0.313
22 | COc1ccc(-c2[nH]c3ccccc3c2/C=C(\C#N)S(=O)(=O)c2ccccc2)cc1 | 0.533 | > 68.8 µM | 0.398 | > 51.6 µM | 0.597 | 16.3 µM | 0.769 µM | > 61.1 | 0.427 | > 25.8 | 0.53 µM | 6.15 | 0.287 | 1.5 | 0.374 µM | 2.59 µM | 1.14 | > 28.6 | 0.58 µM | > 60.8
